Experimental data reported in patent US10222368B2 (priority 2012, dated 2019).

Experiments:
KAPPA opioid receptor = KAPPA opioid receptor (Homo sapiens, UniProt P41145); details: cited from earlier work
mu opiate receptor (MOR) = target: T1, mu opiate receptor (MOR) (Rattus norvegicus, UniProt P33535); test: MOR agonist activity using [35S]GTPγS binding assay in striatal membranes; assay type: biochemical; details: striatal membranes; for MOR agonist activity, [35S]GTPγS binding, FLNA-binding compound as agonist at 0.1 μM: 0.1 μM compound; for MOR agonist activity, [35S]GTPγS binding, FLNA-binding compound as agonist at 0.1 μM / MOR agonist activity, [35S]GTPγS binding, FLNA-binding compound as agonist at 1 μM: Series C-2; for MOR agonist activity, [35S]GTPγS binding, 1 μM + BFNA: 1 μM compound + 1 μM β-FNA (MOR antagonist); for MOR agonist activity, [35S]GTPγS binding, FLNA-binding compound as agonist at 1 μM: 1 μM compound
T1 construct: from tissue; host or cells: striatal tissue (membrane preparation)
T1 sequence (P33535 whole entry): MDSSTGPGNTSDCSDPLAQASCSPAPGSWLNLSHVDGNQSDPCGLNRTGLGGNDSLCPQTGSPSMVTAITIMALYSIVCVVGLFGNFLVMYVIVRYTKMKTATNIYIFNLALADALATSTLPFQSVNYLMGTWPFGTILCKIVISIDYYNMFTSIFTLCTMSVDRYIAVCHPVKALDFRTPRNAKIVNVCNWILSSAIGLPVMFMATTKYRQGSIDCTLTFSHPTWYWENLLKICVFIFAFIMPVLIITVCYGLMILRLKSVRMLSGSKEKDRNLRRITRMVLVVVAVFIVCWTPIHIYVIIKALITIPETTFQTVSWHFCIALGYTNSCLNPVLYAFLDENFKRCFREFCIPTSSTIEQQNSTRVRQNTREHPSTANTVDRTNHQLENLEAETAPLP

α7nAChR-FLNA association = target: T2, α7nAChR-FLNA association (Rattus norvegicus, UniProt A0A8I5ZV49); test: Rat frontal cortical synaptosomes treated with Aβ42, anti-FLNA immunoprecipitation / Western blot; assay type: cell-based
T2 construct: from tissue; host or cells: rat frontal cortical synaptosomes
T2 sequence (A0A8I5ZV49 1-2647): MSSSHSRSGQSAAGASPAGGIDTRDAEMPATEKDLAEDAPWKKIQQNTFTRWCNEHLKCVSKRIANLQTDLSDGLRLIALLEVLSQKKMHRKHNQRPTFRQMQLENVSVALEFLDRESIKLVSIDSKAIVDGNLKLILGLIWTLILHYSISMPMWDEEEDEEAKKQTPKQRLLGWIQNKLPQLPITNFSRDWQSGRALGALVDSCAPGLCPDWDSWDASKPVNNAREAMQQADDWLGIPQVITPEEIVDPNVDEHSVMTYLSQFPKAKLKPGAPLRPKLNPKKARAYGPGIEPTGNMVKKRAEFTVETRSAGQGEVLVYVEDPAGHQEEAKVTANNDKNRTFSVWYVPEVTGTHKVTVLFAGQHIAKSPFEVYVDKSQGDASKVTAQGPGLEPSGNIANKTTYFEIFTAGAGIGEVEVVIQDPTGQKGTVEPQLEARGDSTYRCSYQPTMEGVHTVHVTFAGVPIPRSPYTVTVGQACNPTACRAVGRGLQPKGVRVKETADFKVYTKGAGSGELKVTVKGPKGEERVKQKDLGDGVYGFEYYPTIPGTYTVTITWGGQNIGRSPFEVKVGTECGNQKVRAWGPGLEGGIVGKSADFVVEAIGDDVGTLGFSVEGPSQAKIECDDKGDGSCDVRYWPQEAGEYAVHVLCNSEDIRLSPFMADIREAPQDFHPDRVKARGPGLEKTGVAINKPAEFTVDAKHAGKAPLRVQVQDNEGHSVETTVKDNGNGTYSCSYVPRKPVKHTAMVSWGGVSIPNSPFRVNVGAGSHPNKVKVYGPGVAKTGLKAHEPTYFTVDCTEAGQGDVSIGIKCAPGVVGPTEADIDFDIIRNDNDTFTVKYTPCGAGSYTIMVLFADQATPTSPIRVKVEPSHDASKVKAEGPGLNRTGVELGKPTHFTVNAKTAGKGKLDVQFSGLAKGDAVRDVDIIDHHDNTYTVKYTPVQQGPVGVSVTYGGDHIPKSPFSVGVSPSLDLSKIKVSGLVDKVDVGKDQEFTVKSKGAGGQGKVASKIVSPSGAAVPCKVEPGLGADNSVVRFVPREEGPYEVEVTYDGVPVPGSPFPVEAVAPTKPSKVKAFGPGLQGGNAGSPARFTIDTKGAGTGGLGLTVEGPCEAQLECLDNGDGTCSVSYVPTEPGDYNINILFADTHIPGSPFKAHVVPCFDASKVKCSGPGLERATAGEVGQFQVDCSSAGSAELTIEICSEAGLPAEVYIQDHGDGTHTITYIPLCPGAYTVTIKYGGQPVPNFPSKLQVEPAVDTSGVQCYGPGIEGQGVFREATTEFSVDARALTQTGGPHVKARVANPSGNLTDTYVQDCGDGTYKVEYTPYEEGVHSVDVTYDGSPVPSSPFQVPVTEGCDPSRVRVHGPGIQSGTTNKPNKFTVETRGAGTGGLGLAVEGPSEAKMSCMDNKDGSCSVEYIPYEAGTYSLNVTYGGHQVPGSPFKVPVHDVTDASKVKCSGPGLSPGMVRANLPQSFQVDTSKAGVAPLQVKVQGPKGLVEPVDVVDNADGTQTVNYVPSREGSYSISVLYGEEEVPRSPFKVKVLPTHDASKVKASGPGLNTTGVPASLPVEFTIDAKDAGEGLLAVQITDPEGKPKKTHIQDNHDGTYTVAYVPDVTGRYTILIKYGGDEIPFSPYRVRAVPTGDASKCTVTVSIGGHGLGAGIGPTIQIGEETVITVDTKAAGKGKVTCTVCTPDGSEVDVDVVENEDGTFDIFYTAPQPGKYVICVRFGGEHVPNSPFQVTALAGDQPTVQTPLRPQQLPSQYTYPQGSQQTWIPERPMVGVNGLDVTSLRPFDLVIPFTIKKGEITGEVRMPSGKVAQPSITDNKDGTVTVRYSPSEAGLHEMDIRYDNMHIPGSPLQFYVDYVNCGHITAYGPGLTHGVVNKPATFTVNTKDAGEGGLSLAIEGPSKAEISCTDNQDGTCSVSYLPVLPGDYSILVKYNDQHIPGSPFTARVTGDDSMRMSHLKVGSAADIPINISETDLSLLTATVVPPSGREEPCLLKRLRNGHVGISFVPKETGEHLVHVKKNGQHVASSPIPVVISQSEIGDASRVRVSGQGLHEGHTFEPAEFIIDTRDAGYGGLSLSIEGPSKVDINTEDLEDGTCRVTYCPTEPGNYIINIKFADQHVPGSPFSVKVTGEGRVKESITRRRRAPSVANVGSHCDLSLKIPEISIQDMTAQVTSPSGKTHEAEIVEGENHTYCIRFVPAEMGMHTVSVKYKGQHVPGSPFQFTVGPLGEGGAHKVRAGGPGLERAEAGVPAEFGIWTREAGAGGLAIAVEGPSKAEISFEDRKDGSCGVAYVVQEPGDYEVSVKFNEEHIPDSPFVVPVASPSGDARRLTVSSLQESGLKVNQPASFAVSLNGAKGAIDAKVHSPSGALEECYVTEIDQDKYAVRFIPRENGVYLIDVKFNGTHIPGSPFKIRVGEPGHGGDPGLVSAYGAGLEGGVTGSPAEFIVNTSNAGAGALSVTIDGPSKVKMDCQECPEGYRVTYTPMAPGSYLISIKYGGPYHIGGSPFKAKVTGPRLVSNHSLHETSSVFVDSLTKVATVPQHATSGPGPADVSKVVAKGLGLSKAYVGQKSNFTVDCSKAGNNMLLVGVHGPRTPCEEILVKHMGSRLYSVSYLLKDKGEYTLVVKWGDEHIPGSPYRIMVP
Description: The α7nAChR-FLNA complexes in the solubilized synaptosomes were immunoprecipitated with immobilized anti-FLNA and the α7nAChR and FLNA levels in the anti-FLNA immunoprecipitates determined by Western blotting (FIG. 14A) and quantified by densitometry for illustrative compounds (FIG. 14B). n=3. […] The letter designation “M” that accompanies many of the “C-series” compounds is omitted from FIG. 14, the remaining figures and most discussions of the figures and compounds hereinafter for ease in expression. Structural formulas of the compounds used in this and the other figures are provided hereinafter.
(§1) The complexes in the solubilized synaptosomes, and α7nAChR, TLR4 and FLNA levels in the anti-FLNA immunoprecipitates were determined by Western blotting (FIG. 15A) in which numerals outside of and to the left of the blots are as discussed before. Amounts present in the blots were quantified by densitometry (FIG. 15B). […] Structural formulas of the compounds used in this and the other figures are provided hereinafter.

TLR4/FLNA = target: T3, TLR4/FLNA (Rattus norvegicus, UniProt A0A8I5ZV49); test: as above; assay type: cell-based; details: 1 or 10 nM compound, simultaneously or 10 min prior to 0.1 μM Aβ42; Dunnett's test
T3 construct: from tissue; host or cells: rat frontal cortical synaptosomes
T3 sequence (A0A8I5ZV49 1-2647): as above
Procedure: as §1

[1] = target: T4, human FLNA-α7nAChR complex (Homo sapiens, UniProt P21333); test: Supplemental ELISA for FLNA-α7nAChR complex (Example 8: specificity, accuracy, precision, linearity, detection limit)
T4 construct: To determine the levels of FLNA-α7nAChR, FLNA-TLR4 and α7nAChR-Aβ42 complexes in the lymphocytes; endogenous in cells; host or cells: lymphocytes from venous blood of AD patients and control subjects (ex vivo)
Procedure: The following ELISA method activities were carried out to quantify FLNA-α7nAChR complex: specificity; accuracy; precision/repeatability; linearity and range; and, detection limit.
To assure ELISA assay uniquely identifies human FLNA-α7nAChR complex, the cross reactivity to human FLNA-α7nAChR complex, unrelated human proteins human leptin and human chorionic gonadotropin (hLeptin and hCG) were added to the lymphocyte lysate preparations and the ELISA assay performed.
To assure the ELISA assay returns a value that is representative of the “true” value, a range of concentrations of recombinant human leptin was spiked into lysate sample with FLNA-α7nAChR complex. Recovery percent concentrations were measured and accuracy calculated.
To assure that three measurements of a single lysate sample (e.g., sample AD#63) made in the same assay provide the same result, three samples were measured using the ELISA assay, three times on the same day using the same methods (repeatability). Within-day RSD was calculated.
To assure that the response is linear over the range of expected sample values, OD 450 of different concentrations of human FLNA-α7nAChR complex were detected using the ELISA assay. […]

Sequence of KAPPA opioid receptor (P41145 whole entry): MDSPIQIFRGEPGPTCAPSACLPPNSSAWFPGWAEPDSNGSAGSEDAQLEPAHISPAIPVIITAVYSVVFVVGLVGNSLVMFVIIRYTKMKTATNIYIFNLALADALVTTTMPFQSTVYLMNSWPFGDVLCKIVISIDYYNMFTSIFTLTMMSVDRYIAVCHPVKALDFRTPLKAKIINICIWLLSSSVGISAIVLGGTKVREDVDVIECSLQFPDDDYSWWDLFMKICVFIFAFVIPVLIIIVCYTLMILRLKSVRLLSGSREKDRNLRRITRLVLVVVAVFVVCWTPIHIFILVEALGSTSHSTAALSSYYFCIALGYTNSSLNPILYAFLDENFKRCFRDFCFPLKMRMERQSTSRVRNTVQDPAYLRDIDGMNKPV

Q: For `Oc1ccc2c3c1O[C@H]1c4[nH]c5c(c4C[C@@]4(O)C(C2)N(CC2CC2)CC[C@]314)C[C@@]1(O)[C@H]2Cc3ccc(O)c4c3[C@@]1(CCN2CC1CC1)[C@H]5O4` [Binaltrophimine], which “Opioid receptor activity and relative potency, KAPPA” value (KAPPA opioid receptor) is on record?
A: − −

Q: Which “MOR agonist activity, [35S]GTPγS binding, FLNA-binding compound as agonist at 0.1 μM” value (mu opiate receptor (MOR)) does the source give for `O=C1CNC2(CCNCC2)N1Cc1ccccc1` [Compound C0114M] here?
A: 114.0%

Q: And the “MOR agonist activity, [35S]GTPγS binding, 1 μM + BFNA” value (mu opiate receptor (MOR))?
A: 35.9%

Q: And the “MOR agonist activity, [35S]GTPγS binding, FLNA-binding compound as agonist at 1 μM” value (mu opiate receptor (MOR))?
A: 144.3%

Q: What about the “Effect on Aβ42-induced α7nAChR-FLNA association (in words)” value (α7nAChR-FLNA association; 0.1 or 1 nM compound, simultaneously with or 10 min prior to Aβ42) of the same compound?
A: reduce α7nAChR-FLNA association

Q: What does the source list for `O=C1CNC2(CCN(CC3CC3)CC2)N1Cc1ccccc1` [Compound C0124M]?
A: MOR agonist activity, [35S]GTPγS binding, FLNA-binding compound as agonist at 0.1 μM (mu opiate receptor (MOR)): 252.0%; MOR agonist activity, [35S]GTPγS binding, 1 μM + BFNA (mu opiate receptor (MOR)): 61.4%; MOR agonist activity, [35S]GTPγS binding, FLNA-binding compound as agonist at 1 μM (mu opiate receptor (MOR)): 305.1%; Effect on Aβ42-induced α7nAChR-FLNA association (in words) (α7nAChR-FLNA association; 1 or 10 nM compound, simultaneously or 10 min prior to 0.1 μM Aβ42): reduce α7nAChR-FLNA association; TLR4/FLNA ratio versus Aβ42 alone (in words) (TLR4/FLNA): statistically different from Aβ42 alone

Q: For “hLeptin: unrelated human proteins human leptin and human chorionic gonadotropin (hLeptin and hCG); Human recombinant leptin”, which “Normalized OD, Average” value ([1]; 5 μg protein per well instead of lymphocyte lysate) is on record?
A: 0.02

Q: What about the “% Cross reactivity” value ([1]; 5 μg protein per well, relative to 5 μg AD#63 lysate) of the same compound?
A: 4.3%
